Data published in publication PMC11617665, “Virtual and in Vitro Screening Employing a Repurposing Approach Reveal 13‐cis‐Retinoic Acid is a PTP1B Inhibitor” (Chemmedchem, 2024).

Tests used:
PTP1B [1] = biological target: T1, PTP1B (Homo sapiens, UniProt P18031); assay: In vitro spectrophotometric PTP1B inhibition assay (pNPP substrate); format: biochemical
T1 sequence (P18031 1-435): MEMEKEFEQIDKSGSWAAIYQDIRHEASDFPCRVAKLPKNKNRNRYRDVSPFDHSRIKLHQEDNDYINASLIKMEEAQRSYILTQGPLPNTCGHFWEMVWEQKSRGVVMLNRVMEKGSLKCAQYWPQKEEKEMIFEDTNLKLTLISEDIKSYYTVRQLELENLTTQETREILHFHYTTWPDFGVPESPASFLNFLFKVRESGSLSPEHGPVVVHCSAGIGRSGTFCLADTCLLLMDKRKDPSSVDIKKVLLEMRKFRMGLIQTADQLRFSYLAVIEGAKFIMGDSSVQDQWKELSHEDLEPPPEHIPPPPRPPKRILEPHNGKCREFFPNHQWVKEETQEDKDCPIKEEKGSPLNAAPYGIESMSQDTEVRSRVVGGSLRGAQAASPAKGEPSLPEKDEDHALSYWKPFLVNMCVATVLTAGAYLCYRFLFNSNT
Procedure: The spectrophotometric method previously described was used.[39] The compounds and the positive control were dissolved in dimethylsulfoxide (DMSO). Aliquots of 0–10 μL solution of the compounds to be tested (in triplicate) were incubated with 85 μL of the enzyme (66 nM) in Tris [50 mM; Tris‐HCI Buffer, pH 6.8] and 5 microliters of the substrate (pNPP, 10 mM), for 15 min at 37 °C. After incubation, the absorbance was determined. The inhibitory activity for the compounds was determined as a percentage compared to the blank (Tris) according to the following equation: (1) %PTP1B=1-A415t/A415cX100%
Where %PTP1B is the percentage inhibition, A415t is the corrected absorbance of the tested compound (A415 final‐A415 initial), and A415c is the corrected absorbance of the blank (A415 final blank‐A415 initial target). The IC50 was calculated by regression analysis using the following equation: (2) %Inhibition=A100/1+I/CI50^s

[2] = parameters: method as in PMID 11375780; conditions: cited from earlier work
[3] = parameters: method as in PMID 19961047; conditions: ingestion during pregnancy or shortly before conception; cited from earlier work
PTP1B [4] = biological target: T1, PTP1B; assay: Enzyme kinetics studies, type of inhibition (Lineweaver-Burk); conditions: for type of inhibition: Lineweaver-Burk plot
Procedure: The assay was carried out with different concentrations of inhibitor (0, 0.005, 0.040 and 0.060 mM) and substrate (0.10, 0.20, 0.30, 0.40, and 0.50 mM). Kinetic parameters (Vmax, Km, and Ki) were obtained by nonlinear regression fit analysis using Origin 2018 software.

- IC50 (PTP1B [1]; PTP1B 66 nM, pNPP, Tris pH 6.8, 15 min at 37 °C): 44 µM
- inhibitory activity against PTP1B (PTP1B [1]; compounds evaluated at 2 mM): significant inhibitory activity
- Ki (PTP1B [4]): 23.4 ± 2 µM
- type of inhibition (PTP1B [4]): competitive inhibition
- type of inhibition (PTP1B [4]; listed as 13‐cis‐retinoic acid): competitive PTP1B inhibitor
SMILES: CC1=C(/C=C/C(C)=C/C=C/C(C)=C\C(=O)O)C(C)(C)CCC1 [3a, 13‐cis‐retinoic acid]
- DE50 for humans [2]: 0.4 mg/kg
- teratogenic effect [3]: teratogen
